“And” between values parts separate entries of the source, which are not always exact repeats. Equal values may be shown once.
Columns and labels:
human neutrophils = assay: CDKi-induced, caspase-dependent neutrophil apoptosis detected with Apo-15; format: cell-based; settings: R-roscovitine 20 µM (CDKi), QVD 10 μM, single replicates Data 1-4
Method: First, we confirmed that Apo-15 could detect CDKi-induced apoptosis in vitro. […] Apo-15 staining of CDKi-induced apoptosis was also caspase-dependent as confirmed by a significant reduction in the fluorescent signal after treatment with the caspase inhibitor QVD[34] (Fig. 5a). Next, we induced ALI in vivo in mice by intratracheal administration of E. coli-derived LPS (1 μg per mouse), and the apoptotic load in the lungs relative to saline control was increased by intraperitoneal administration of CDKi AT7519[38] (Fig. 5b). In all mice, we administered Apo-15 in vivo and, 30 min later, we collected bronchoalveolar lavage fluid (BALF) together with lung tissues. BALF and lung slices from LPS-only and LPS + CDKi mice were analyzed by multiparameter flow cytometry to determine the proportion of apoptotic cells that had been stained by Apo-15 in vivo (gating strategy in Supplementary Fig. 15). […] Furthermore, we quantified the effects of CDKi-induced apoptosis in vivo by measuring the percentages of apoptotic neutrophils in total cell counts. […] We confirmed that CD45 + Ly6G+ cells labeled by Apo-15 in vivo were apoptotic by co-staining with AF647-Annexin V ex vivo (Fig. 5d). Next, we acquired fluorescence microscopy images of lung tissue sections from mice under different regimes (Fig. 5c, e). […]

[1] = design: method as in 2 sources, ref Table 1 ||| ref [8],[60],[19],[61],[63],[64],[66],[67] = [8]; PMID 19966809; doi:10.1038/nmeth.1405; 8. Kim YE Chen J Chan JR Langen R Engineering a polarity-sensitive biosensor for time-lapse imaging of apoptotic processes and degeneration Nat. Methods 2010 7 67 73 19966809 10.1038/nmeth.1405 PMC284 || [60]; PMID 20671723; doi:10.1038/nprot.2010.101; 60. Kim YE Chen J Langen R Chan JR Monitoring apoptosis and neuronal degeneration by real-time detection of phosphatidylserine externalization using a polarity-sensitive indicator of viability and apo || [19]; PMID 17051335; doi:10.1007/s10495-006-0282-7; 19. Aloya R Molecular imaging of cell death in vivo by a novel small molecule probe Apoptosis 2006 11 2089 2101 17051335 10.1007/s10495-006-0282-7 PMC2782107 || [61]; PMID 16317537; doi:10.1007/s00259-005-1905-x; 61. Damianovich M ApoSense: a novel technology for functional molecular imaging of cell death in models of acute renal tubular necrosis Eur. J. Nucl. Med. Mol. Imaging 2006 33 281 291 16317537 10.1007 || [63]; PMID 15113694; doi:10.1016/j.ab.2004.01.020; 63. Garcia Fernandez MI Ceccarelli D Muscatello U Use of the fluorescent dye 10-N-nonyl acridine orange in quantitative and location assays of cardiolipin: a study on different experimental models Ana; settings: cited from earlier work; for Brightness (φ × ε): Table 1, commercial probes, ref [8],[60],[19],[61],[63],[64],[66],[67]
apoptotic neutrophils = assay: Signal-to-noise ratios in imaging of apoptotic neutrophils; format: cell-based, human; settings: apoptotic cells, excitation 488 nm, same settings; response to reviewers
Method: Signal-to-noise ratios for apoptotic neutrophils labeled with FITC-Annexin V or Apo-15 were determined after image acquisition under the same laser power and gain and analysis using ImageJ. Briefly, raw images were converted into 16-bit grayscale images and average fluorescence intensities in labeled cells and in the background were measured (≥150 points per condition). Experiments were performed in triplicate.
Supplementary Figure 14. Quantification of the fluorescence signal-to-noise (S/N) ratios in apoptotic neutrophils after staining with Apo -15 (100 nM) or FITC-Annexin V (25 nM) and image acquisition under the same experimental conditions
(excitation/emission filters: 488 nm /525 nm). Data presented as mean values±SEM (n=3-4 independent cells from 3 independent experiments). Source data are provided […]
FIT C, AlexaFluor647). […]
In imaging experiment in mice, the fluorescence signals were not found along membranes in the cells. […]
First, we have included flow cytometric data from BALs of LPS-treated mice that were not given Apo- 15, which conf irm ed the lack of green fluorescence in viable CD45+CD11c+ Annexin V− macrophages (new Supplementary Figure 15 and new Supplementary Figure 18 for the results). […]

| Molecule | Apo-15-positive cells (flow cytometry) (human neutrophils) | Brightness (φ × ε) [1] | other results |
| --- | --- | --- | --- |
| CC[C@H](CO)Nc1nc(NCc2ccccc2)c2ncn(C(C)C)c2n1 [CDKi, R-roscovitine] | 57.1 and 64.3 and 39.1 and 90.1 |  |  |
| CN(C)c1cccc2c(S(=O)(=O)N[C@@H](CSSC[C@H](NS(=O)(=O)c3cccc4c(N(C)C)cccc34)C(=O)O)C(=O)O)cccc12 [N,N′-Didansyl-L-cystin] |  | 3000 | Brightness ([1]; other environmentally-sensitive probes, ref Table 1): 3000 M⁻¹ cm⁻¹ |
| CCCCCCCCC[n+]1c2cc(N(C)C)ccc2cc2ccc(N(C)C)cc21.[Br-] [Nonyl acridine orange] |  | 20,000 |  |
| CC[N+](C)(CC)CCC[n+]1c(-c2ccccc2)c2cc(N)ccc2c2ccc(N)cc21.[I-].[I-] [PI, propidium iodide] |  | <100 |  |
| CC(C)[C@H](NC(=O)c1ccc2ccccc2n1)C(=O)N[C@@H](CC(=O)O)C(=O)COc1c(F)cccc1F [QVD] | 3.0 and 7.0 and 2.9 and 4.0 |  |  |
| Annexin-FITC: FITC-labeled annexin V (protein, UniProt P08758 2-320, looked up, FITC label, FITC-labeled annexin V) Annexin A5: AQVLRGTVTDFPGFDERADAETLRKAMKGLGTDEESILTLLTSRSNAQRQEISAAFKTLFGRDLLDDLKSELTGKFEKLIVALMKPSRLYDAYELKHALKGAGTNEKVLTEIIASRTPEELRAIKQVYEEEYGSSLEDDVVGDTSGYYQRMLVVLLQANRDPDAGIDEAQVEQDAQALFQAGELKWGTDEEKFITIFGTRSVSHLRKVFDKYMTISGFQIEETIDRETSGNLEQLLLAVVKSIRSIPAYLAETLYYAMKGAGTDDHTLIRVMVSRSEIDLFNIRKEFRKNFATSLYSMIKGDTSGDYKKALLLLCGEDD |  |  | Signal-to-noise ratio (apoptotic neutrophils): ~100 fold |
